Assay results: article PMC11541514, “Structural and Solution Speciation Studies on fac-Tricarbonylrhenium(I) Complexes of 2,2′-Bipyridine Analogues” (ACS Omega, 2024)

Key:
[1] = tested on: Colo205 human colonic adenocarcinoma cell line (doxorubicin-sensitive); experiment: MTT cytotoxicity assay on Colo205 cells; format: cell-based
Procedure: The cytotoxic activity of selected halido (1–4Cl, and 3Br with chlorido and bromido coligand, respectively) and aqua (1–4Aq) complexes was evaluated in the drug-sensitive Colo205 and its resistant counterpart Colo320 human colonic adenocarcinoma cell lines using the colorimetric 3-(4,5-dimethylthiazol-2-yl)-2,5-diphenyl-tetrazolium bromide (MTT) assay. For comparison, fac-[Re(CO)3(bpy)(Cl)] (in which bpy denotes 2,2′-bipyridine) was also tested, and doxorubicin was used as a positive control. […] The aqua complexes (1–4Aq) were characterized by even higher IC50 values (>100 μM). The somewhat higher cytotoxic activity of the halido complexes might be the result of their kinetic inertness compared to aqua derivatives, based on the previous solution chemical studies. […]
(§1) The tested compounds were dissolved in DMSO or 20% (v/v) DMSO/H2O mixture to prepare 5 mM stock solutions, which were diluted in complete culture medium, to study the effect of compounds on the cell growth of human colonic adenocarcinoma cell lines (doxorubicin-sensitive Colo205 and resistant Colo320 colonic adenocarcinoma cells). […] Cell growth was determined by measuring the optical density (OD) at 540/630 nm with a Multiscan EX ELISA reader (Thermo Labsystems, Cheshire, WA, USA). […]

[2] = tested on: Colo320/MDR-LRP resistant human colonic adenocarcinoma cell line; experiment: MTT cytotoxicity assay on Colo320 cells; format: cell-based; settings: for IC50: MTT, incubation time 72 h
Procedure: The cytotoxic activity of selected halido (1–4Cl, and 3Br with chlorido and bromido coligand, respectively) and aqua (1–4Aq) complexes was evaluated in the drug-sensitive Colo205 and its resistant counterpart Colo320 human colonic adenocarcinoma cell lines using the colorimetric 3-(4,5-dimethylthiazol-2-yl)-2,5-diphenyl-tetrazolium bromide (MTT) assay. For comparison, fac-[Re(CO)3(bpy)(Cl)] (in which bpy denotes 2,2′-bipyridine) was also tested, and doxorubicin was used as a positive control. […] The aqua complexes (1–4Aq) were characterized by even higher IC50 values (>100 μM). The somewhat higher cytotoxic activity of the halido complexes might be the result of their kinetic inertness compared to aqua derivatives, based on the previous solution chemical studies.
Doxorubicin-sensitive Colo205 (ATCC-CCL-222) and ABCB1 (MDR1)-LRP-expressing resistant Colo320/MDR-LRP (ATCC-CCL-220.1) human colonic adenocarcinoma cell lines were purchased from LGC Promochem (Teddington, UK). The cells were cultured in RPMI 1640 medium supplemented with 10% heat-inactivated fetal bovine serum, 2 mM L-glutamine, 1 mM Na-pyruvate, and 10 mM 4-(2-hydroxyethyl)-1-piperazineethanesulfonic acid (HEPES, Sigma, Steinheim, Germany). Cell lines were incubated at 37 °C in a 5% CO2, 95% air atmosphere. The semiadherent human colon cancer cells were detached with Trypsin-Versene (EDTA, Sigma, Steinheim, Germany) solution for 5 min at 37 °C.
as §1, with “cells). Doxorubicin (Merck, Darmstadt, Germany) was used as a positive control. The cells were treated with Trypsin-Versene (EDTA) solution.” for “cells).”

Vero cells = experiment: MTT assay on Vero cells, maximum non-toxic concentration; format: cell-based, African green monkey; settings: incubation 24 h
Procedure: Selected compounds (1–4Aq, 1–4Cl, and 3Br) and the reference complex fac-[Re(CO)3(bpy)(Cl)] were tested for their antiviral activity against Herpes simplex virus 2 (HSV-2), which is a double-stranded DNA virus that infects mammals, including humans.[29] The antiviral activity of complexes against HSV-2 was investigated by using Vero cells (originally isolated from kidney epithelial cells of an African green monkey) to host the growing viruses.
Vero cells (ATCC) were placed into the 96-well plate (Sarstedt, Nümbrecht, Germany) at a density of 4 × 10^6 cells/plate. The cells at a density of 4 × 10^4 cells per well were in 100 μL of minimal essential medium (MEM) (Sigma; USA) with Earle salts supplemented with 25 μg/mL gentamicin, 10% heat-inactivated fetal bovine serum (FBS) (Gibco; Germany), 8 mM HEPES, 2 mM L-glutamine, 1× nonessential amino acids, and 1 μg/mL fungisone. The cells were incubated for 60 min at room temperature (RT) to avoid the edge effect and then for 24 h at 37 °C, 5% CO2 that secure a 90% confluent cell layer.[44]
MTT assay was used to determine the maximum non-toxic concentration of the complexes on Vero cells. […] Next day the absorbance of the wells was determined by a microtiter plate reader (Labsystems Multiskan Ex 355, Thermo Fisher Scientific, Waltham, MA USA). The absorbance of the formazan product was measured at 540 nm.[45]

With COc1cccc2c1C(=O)c1c(O)c3c(c(O)c1C2=O)C[C@@](O)(C(=O)CO)C[C@@H]3O[C@H]1C[C@H](N)[C@H](O)[C@H](C)O1 [doxorubicin, reference compound] the IC50 ([1]; Homo sapiens, COLO 205, incubation time 72 h) was 0.58 ± 0.06 µM and the IC50 ([2]; Homo sapiens, COLO 320) was 3.13 ± 0.29 µM.
For [C-]#[O+].[C-]#[O+].[C-]#[O+].[Cl][Re-2]1[n+]2ccccc2-c2cccc[n+]21 [fac-[Re(CO)3(bpy)(Cl)], reference compound], the IC50 ([1]; incubation time 72 h) was 25.2 ± 1.1 µM, the “RF (resistance factor = IC50(Colo320)/IC50(Colo205))” value ([2]; 72 h) was 1.95 and the IC50 [2] was 49.1 ± 1.7 µM. For the same compound, the maximum nontoxic concentration (Vero cells) was 25 µM.
